The values that follow come from ChEMBL document CHEMBL5465560, “Selectivity Literature for EUbOPEN Chemogenomic Library” (2024).

Test [1] addresses Serine/threonine-protein kinase B-raf (Homo sapiens) (UniProt P15056). The test can be described thus: (§1) Selectivity interaction (Ambit KINOMEscan and KiNATiv profiling in Jurkat cells) EUB0000090b BRAF. In kind it is cell-based. Particulars: at 1 µM.
The test system of test [2] is Serine/threonine-protein kinase B-raf (Homo sapiens), P15056 [V600E]. Described as §1. Particulars: at 1 µM. In kind it is cell-based.
Test [3] has as its target Protein-tyrosine kinase 2-beta (Homo sapiens) (UniProt Q14289). Particulars: at 10 µM.
The target in test [4] is T1, Serine/threonine-protein kinase ULK2 (Homo sapiens) (UniProt Q8IYT8).
T1 sequence (whole entry): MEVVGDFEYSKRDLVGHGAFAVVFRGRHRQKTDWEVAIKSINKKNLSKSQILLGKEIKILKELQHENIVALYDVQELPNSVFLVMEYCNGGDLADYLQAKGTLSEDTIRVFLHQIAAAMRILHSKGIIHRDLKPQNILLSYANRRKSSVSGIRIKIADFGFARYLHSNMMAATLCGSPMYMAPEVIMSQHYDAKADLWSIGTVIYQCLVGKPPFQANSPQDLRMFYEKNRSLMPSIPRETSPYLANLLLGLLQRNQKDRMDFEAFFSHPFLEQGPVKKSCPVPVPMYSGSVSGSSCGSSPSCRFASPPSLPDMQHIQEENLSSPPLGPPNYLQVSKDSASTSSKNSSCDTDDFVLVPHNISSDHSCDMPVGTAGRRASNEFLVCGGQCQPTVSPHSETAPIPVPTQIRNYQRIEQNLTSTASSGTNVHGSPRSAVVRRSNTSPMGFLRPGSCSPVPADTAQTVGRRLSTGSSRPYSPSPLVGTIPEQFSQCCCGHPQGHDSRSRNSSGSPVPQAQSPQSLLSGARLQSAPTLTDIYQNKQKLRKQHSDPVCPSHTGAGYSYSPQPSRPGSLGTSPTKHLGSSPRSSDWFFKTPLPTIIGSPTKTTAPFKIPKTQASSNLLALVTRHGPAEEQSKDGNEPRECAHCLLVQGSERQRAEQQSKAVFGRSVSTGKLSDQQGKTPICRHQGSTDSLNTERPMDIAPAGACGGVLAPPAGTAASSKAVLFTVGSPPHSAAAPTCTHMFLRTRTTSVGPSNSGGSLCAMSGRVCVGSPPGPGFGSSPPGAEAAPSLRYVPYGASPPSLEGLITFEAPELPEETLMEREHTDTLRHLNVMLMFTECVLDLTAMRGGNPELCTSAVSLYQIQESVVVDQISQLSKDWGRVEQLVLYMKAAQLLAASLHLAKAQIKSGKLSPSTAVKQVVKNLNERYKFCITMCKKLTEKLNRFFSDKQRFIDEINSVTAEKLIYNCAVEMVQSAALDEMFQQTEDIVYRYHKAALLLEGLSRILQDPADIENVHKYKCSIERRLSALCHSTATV
The test can be described thus: Selectivity interaction (KinomeScan (DiscoverX)) EUB0001079a ULK2. Particulars: at 1 µM.

In test [5] the target is T2, Serine/threonine-protein kinase ICK (Homo sapiens) (UniProt Q9UPZ9).
T2 sequence (whole entry): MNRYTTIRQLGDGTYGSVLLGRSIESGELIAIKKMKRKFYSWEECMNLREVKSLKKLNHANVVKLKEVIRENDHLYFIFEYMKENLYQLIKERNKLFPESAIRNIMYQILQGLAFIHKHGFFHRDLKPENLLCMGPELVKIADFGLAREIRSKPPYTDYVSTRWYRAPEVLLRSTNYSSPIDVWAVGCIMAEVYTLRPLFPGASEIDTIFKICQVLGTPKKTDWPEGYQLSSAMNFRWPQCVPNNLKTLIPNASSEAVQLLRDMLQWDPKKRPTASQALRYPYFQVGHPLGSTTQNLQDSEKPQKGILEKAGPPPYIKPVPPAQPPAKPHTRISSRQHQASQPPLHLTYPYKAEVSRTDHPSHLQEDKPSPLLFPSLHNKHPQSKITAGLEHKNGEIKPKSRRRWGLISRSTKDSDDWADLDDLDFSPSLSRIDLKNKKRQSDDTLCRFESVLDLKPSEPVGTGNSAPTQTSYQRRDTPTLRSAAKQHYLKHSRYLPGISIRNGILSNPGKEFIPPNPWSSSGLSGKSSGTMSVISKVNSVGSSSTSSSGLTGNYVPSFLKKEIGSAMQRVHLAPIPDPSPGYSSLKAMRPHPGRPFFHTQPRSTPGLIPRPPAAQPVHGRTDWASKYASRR
The test can be described thus: Selectivity interaction (KinomeScan (DiscoverX)) EUB0000092b ICK. Particulars: at 10 µM.

The target of test [6] is Serine/threonine-protein kinase SIK2 (Homo sapiens) (UniProt Q9H0K1). The test can be described thus: Selectivity interaction (KinomeScan (DiscoverX)) EUB0000092b SIK2. Particulars: at 10 µM.
Test [7] deals with Vascular endothelial growth factor receptor 3 (Homo sapiens, UniProt P35916). In words: Selectivity interaction (KinomeScan (DiscoverX)) EUB0000655a FLT4. Particulars: at 10 µM.
The target in test [8] is Phosphatidylinositol 4-phosphate 5-kinase type-1 gamma (Homo sapiens) (UniProt O60331). The test can be described thus: Selectivity interaction (KinomeScan (DiscoverX)) EUB0000695a PIP5K1C. Particulars: at 100 nM.
Test [9] has as its target T3, Aurora kinase A (Homo sapiens) (UniProt O14965).
T3 sequence (whole entry): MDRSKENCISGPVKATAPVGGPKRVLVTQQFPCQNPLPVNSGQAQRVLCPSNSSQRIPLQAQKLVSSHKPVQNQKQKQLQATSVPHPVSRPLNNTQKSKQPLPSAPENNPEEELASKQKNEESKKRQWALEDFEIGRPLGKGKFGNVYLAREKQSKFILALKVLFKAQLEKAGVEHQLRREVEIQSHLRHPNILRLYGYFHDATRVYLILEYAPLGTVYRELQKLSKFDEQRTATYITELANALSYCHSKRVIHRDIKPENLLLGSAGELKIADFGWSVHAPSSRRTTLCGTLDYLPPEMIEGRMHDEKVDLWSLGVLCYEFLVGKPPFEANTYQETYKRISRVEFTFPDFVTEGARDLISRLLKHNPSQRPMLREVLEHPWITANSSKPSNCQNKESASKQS
In words: Selectivity interaction (ActivX KiNativ screen (kinase selectivity in THP-1 cell lysates)) EUB0000639a STK6. Particulars: lysate, at 0.2 µM. In kind it is subcellular.

In test [10] the target is Microtubule-associated serine/threonine-protein kinase 1 (Homo sapiens) (UniProt Q9Y2H9). In words: Selectivity interaction (ActivX KiNativ screen (kinase selectivity in THP-1 cell lysates)) EUB0000639a MAST1. In kind it is subcellular. Particulars: lysate.
Test [11] concerns the target MAP kinase-interacting serine/threonine-protein kinase 2 (Homo sapiens, UniProt Q9HBH9).
In test [12] the target is TRAF2 and NCK-interacting protein kinase (Homo sapiens) (UniProt Q9UKE5). In words: Selectivity interaction (KinomeScan (DiscoverX)) EUB0001619a TNIK. Particulars: at 1 µM.
Sequence of TRAF2 and NCK-interacting protein kinase (Homo sapiens) (Q9UKE5 whole entry, looked up): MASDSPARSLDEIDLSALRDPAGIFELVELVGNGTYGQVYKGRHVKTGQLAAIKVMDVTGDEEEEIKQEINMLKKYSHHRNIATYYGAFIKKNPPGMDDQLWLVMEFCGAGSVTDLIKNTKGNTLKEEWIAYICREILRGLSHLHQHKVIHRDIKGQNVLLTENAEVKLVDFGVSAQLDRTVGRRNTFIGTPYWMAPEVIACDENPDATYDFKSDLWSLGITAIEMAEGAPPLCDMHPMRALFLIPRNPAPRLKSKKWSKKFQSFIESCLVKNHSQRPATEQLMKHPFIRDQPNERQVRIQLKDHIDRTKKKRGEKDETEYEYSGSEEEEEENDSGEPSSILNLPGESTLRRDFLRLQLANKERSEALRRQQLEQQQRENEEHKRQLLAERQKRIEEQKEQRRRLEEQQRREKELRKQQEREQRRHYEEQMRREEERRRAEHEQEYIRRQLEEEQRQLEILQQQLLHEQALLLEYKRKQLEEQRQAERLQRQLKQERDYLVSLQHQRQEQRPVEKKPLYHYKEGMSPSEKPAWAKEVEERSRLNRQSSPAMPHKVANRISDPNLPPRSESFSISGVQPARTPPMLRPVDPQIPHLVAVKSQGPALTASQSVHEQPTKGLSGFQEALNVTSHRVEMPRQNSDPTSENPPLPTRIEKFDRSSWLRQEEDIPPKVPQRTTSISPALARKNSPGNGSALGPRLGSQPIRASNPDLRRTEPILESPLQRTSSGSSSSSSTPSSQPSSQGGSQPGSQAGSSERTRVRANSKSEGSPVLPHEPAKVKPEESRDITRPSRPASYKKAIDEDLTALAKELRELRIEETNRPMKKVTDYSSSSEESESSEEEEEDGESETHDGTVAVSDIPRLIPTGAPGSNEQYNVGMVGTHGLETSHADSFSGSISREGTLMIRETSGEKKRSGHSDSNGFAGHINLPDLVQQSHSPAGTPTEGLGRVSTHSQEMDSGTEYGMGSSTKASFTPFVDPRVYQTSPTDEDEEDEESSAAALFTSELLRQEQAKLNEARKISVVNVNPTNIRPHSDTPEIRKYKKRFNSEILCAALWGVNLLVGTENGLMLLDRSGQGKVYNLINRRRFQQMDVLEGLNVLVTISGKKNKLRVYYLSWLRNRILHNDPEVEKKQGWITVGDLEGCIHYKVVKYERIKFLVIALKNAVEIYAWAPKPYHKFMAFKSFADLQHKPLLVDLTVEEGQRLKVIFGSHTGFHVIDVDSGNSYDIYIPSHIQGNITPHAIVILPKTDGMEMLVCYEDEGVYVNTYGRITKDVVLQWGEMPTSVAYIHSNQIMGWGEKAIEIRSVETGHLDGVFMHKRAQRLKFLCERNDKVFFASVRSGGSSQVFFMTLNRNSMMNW

Sequence of Microtubule-associated serine/threonine-protein kinase 1 (Homo sapiens) (Q9Y2H9 whole entry, looked up): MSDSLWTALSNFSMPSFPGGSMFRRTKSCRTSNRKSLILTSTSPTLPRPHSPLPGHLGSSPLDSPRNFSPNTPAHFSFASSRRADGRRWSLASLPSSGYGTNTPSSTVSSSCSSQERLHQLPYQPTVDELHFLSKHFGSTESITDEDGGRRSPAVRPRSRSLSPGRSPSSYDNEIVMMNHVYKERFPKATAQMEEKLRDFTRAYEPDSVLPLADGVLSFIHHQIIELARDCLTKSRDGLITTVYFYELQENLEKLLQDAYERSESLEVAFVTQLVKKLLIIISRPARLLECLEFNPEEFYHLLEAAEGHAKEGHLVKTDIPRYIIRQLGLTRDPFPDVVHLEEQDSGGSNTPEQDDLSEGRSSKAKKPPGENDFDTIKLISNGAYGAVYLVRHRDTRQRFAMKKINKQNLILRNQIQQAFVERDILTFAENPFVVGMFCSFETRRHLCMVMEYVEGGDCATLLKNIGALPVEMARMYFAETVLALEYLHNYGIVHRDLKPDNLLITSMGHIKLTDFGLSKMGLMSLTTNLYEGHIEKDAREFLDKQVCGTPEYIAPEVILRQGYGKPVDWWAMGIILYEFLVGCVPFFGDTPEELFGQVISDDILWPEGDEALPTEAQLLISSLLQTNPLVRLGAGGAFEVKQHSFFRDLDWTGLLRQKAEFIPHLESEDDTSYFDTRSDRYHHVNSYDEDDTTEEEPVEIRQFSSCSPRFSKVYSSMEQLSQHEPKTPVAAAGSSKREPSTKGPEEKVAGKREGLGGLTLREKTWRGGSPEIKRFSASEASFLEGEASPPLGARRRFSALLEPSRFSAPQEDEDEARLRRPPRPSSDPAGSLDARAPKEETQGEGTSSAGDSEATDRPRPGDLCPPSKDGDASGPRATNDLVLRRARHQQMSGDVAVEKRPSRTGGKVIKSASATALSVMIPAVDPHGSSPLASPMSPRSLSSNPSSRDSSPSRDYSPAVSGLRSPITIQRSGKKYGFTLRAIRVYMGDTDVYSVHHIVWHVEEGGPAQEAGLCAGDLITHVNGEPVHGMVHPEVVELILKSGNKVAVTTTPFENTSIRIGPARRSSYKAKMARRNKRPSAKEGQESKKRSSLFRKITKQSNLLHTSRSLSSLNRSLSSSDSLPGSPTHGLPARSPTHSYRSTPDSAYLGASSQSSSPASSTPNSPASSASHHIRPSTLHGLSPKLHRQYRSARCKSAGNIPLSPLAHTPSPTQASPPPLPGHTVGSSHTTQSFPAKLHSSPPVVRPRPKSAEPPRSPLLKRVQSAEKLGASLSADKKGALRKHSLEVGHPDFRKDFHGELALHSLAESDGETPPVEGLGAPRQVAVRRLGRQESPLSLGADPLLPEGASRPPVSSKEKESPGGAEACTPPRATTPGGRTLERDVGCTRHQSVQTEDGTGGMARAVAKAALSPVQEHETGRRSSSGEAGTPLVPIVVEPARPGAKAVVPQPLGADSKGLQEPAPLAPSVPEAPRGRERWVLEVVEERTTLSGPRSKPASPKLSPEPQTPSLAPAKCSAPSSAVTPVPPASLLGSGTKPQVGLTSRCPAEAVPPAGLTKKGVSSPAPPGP
Sequence of Phosphatidylinositol 4-phosphate 5-kinase type-1 gamma (Homo sapiens) (O60331 whole entry): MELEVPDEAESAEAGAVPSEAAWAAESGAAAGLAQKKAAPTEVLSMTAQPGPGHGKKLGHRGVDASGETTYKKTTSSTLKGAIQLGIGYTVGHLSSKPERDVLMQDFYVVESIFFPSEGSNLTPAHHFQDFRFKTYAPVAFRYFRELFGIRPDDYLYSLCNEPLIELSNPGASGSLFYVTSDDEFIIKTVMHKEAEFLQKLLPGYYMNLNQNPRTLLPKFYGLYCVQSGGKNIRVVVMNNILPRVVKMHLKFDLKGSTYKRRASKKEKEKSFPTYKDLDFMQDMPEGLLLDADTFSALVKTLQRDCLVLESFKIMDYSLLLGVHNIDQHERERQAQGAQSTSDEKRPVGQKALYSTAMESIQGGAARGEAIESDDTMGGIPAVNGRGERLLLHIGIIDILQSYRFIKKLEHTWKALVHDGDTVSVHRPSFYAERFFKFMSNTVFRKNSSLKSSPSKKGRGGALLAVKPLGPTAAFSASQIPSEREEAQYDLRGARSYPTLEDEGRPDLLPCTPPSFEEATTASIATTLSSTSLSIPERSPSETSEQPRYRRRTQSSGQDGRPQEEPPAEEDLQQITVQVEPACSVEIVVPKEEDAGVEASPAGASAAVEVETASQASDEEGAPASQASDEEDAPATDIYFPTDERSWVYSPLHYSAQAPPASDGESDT
Sequence of Protein-tyrosine kinase 2-beta (Homo sapiens) (Q14289 whole entry, looked up): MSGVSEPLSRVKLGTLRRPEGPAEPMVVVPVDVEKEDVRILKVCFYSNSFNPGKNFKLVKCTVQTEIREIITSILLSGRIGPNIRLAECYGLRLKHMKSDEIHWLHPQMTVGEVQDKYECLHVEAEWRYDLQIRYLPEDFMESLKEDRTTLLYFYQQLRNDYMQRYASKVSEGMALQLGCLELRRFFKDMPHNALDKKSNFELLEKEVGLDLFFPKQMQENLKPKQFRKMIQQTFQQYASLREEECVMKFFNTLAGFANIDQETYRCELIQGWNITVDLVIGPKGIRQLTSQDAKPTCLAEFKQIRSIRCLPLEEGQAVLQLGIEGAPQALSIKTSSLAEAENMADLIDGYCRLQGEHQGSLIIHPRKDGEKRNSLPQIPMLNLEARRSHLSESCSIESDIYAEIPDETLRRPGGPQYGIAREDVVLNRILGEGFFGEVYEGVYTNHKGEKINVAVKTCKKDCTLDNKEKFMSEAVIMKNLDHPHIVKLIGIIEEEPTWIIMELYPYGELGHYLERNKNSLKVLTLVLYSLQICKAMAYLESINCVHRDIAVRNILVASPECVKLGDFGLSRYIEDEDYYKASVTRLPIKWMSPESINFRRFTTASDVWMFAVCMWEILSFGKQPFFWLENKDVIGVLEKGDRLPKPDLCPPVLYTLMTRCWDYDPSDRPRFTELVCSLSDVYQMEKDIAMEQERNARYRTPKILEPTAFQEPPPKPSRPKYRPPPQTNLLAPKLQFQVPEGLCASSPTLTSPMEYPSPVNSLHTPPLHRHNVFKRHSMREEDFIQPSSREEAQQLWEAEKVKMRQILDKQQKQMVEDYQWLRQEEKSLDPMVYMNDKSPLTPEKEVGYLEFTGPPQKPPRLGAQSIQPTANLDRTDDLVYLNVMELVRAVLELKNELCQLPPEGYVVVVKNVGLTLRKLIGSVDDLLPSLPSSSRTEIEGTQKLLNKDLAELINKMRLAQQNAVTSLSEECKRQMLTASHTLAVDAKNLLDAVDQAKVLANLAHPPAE
Sequence of MAP kinase-interacting serine/threonine-protein kinase 2 (Q9HBH9 whole entry): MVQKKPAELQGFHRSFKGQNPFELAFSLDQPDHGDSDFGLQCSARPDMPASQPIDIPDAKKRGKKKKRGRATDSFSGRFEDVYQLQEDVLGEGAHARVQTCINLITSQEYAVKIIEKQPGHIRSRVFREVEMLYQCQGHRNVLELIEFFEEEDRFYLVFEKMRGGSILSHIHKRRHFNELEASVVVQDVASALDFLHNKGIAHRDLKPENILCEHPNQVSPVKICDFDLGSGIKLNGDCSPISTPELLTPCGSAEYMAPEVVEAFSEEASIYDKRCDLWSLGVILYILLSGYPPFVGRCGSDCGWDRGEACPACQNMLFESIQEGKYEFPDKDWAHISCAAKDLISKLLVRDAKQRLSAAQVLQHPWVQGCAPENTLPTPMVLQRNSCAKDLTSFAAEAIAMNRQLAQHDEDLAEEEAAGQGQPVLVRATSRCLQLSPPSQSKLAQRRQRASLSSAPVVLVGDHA

As for `CN(C)C/C=C/C(=O)Nc1ccc(C(=O)N2CCCC(Nc3ncc(Cl)c(-c4c[nH]c5ccccc45)n3)C2)cc1` (stereo unspecified), the results for the % of control in test [1] and in [2] were 98% and 100%, respectively.

In turn, `CCN(CC)CCCCNc1ncc2cc(-c3cc(OC)cc(OC)c3)c(NC(=O)NC(C)(C)C)nc2n1` came in with a % of control in [3] of 100%.

Take `Nc1cnc(N2CCc3cc(S(=O)(=O)Nc4c(F)cc(Cl)cc4F)cc(N4CCCC4=O)c32)nc1` [TP-020n]: the % of control in test [4] amounted to 100%.

For the molecule `CCC(=O)N1CCN(c2ccc(-n3c(=O)ccc4cnc5ccc(-c6cnc7ccccc7c6)cc5c43)cc2C(F)(F)F)CC1`, the % of control came to 100% in test [5] and 23% in test [6].

In test [7], `CN(C)CCOc1ccc(-c2nc(-c3ccncc3)c(-c3ccc4c(c3)CC/C4=N\O)[nH]2)cc1` came in with a % of control of 100%.

Take `Cc1cc(F)c(C(=O)Nc2cccc(-c3nncn3C(C)C)n2)cc1-n1cnc(C2CC2)c1`: the % of control in test [8] was 100%.

Regarding `CC[C@@H]1[C@H](F)C(=O)N[C@@H]1COc1nccc2cc(C(N)=O)c(OC)cc12` [ZIMLOVISERTIB], the % of inhibition in test [9] is -1%; in test [10] (at 0.01 µM), -0.4%; in test [10] (at 0.04 µM), -2.4%; in [10] (at 0.2 µM), -2.5%; in test [10] (at 1 µM) it was -1.4%; in test [10] (at 5 µM), -30.3%.

Consider `CCc1cccc(CC)c1NC(=O)c1nn(C)c2c1CCc1cnc(Nc3ccc(C(=O)NC4CCN(C)CC4)cc3OC(F)(F)F)nc1-2`, for which the IC50 (commonly the concentration needed to halve the response being measured) in test [11] was above 10 µM.

The molecule `N#Cc1cccc(-c2c[nH]c3ncnc(N4CCOCC4)c23)c1` had a % of control in test [12] of 45%.
